One block for each molecule: values may come before it.
How the values were obtained:
[1] = molecular target: T1, Solute carrier organic anion transporter family member 4C1 (Homo sapiens, UniProt Q6ZQN7); assay: TP_TRANSPORTER: inhibition of Digoxin uptake in OATP4C1-expressing MDCK cells; type: functional, cell-based
T1 sequence (Q6ZQN7 whole entry): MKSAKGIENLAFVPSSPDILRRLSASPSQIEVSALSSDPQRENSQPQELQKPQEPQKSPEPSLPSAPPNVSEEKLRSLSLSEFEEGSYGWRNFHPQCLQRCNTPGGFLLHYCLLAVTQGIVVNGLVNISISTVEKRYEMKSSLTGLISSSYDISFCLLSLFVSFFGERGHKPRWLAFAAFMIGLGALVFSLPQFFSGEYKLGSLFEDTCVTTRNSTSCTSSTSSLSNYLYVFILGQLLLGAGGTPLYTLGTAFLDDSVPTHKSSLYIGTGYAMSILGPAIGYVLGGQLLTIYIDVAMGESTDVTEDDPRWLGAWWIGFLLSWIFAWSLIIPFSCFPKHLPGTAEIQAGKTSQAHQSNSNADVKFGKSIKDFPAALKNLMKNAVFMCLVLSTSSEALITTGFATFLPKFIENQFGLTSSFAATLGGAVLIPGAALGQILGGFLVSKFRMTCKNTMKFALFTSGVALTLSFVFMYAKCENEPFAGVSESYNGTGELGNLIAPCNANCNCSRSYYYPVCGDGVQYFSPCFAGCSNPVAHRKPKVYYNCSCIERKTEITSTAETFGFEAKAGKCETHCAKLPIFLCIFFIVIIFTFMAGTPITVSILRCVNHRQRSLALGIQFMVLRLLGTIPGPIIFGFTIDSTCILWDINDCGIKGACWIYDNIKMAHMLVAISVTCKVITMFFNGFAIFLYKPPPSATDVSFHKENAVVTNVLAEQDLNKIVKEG

[2] = molecular target: T1, Solute carrier organic anion transporter family member 4C1; assay: TP_TRANSPORTER: inhibition of Triiodothyronine uptake in OATP4C1-expressing MDCK cells; type: functional, cell-based
[3] = substrate: C[C@H]1O[C@@H](O[C@H]2[C@@H](O)C[C@H](O[C@H]3[C@@H](O)C[C@H](O[C@H]4CC[C@@]5(C)[C@H](CC[C@@H]6[C@@H]5C[C@@H](O)[C@]5(C)[C@@H](C7=CC(=O)OC7)CC[C@]65O)C4)O[C@@H]3C)O[C@@H]2C)C[C@H](O)[C@@H]1O; assay: cells, lysate or membranes named
Description: (§1) TP_TRANSPORTER: cell accumulation in OATP4C1-expressing MDCK cells

[4] = substrate: N[C@@H](Cc1cc(I)c(Oc2ccc(O)c(I)c2)c(I)c1)C(=O)O; assay: cells, lysate or membranes named
Description: as §1

Molecule: C[C@]12CC[C@H](O)C[C@H]1CC[C@@H]1[C@@H]2C[C@@H](O)[C@]2(C)[C@@H](C3=CC(=O)OC3)CC[C@]12O [DIGOXIGENIN]
IC50 [1]: 490 nM

IC50 [2]: 8000 nM
Molecule: N[C@@H](Cc1cc(I)c(Oc2cc(I)c(O)c(I)c2)c(I)c1)C(=O)O [LEVOTHYROXINE]

Molecule: C[C@H]1O[C@@H](O[C@H]2[C@@H](O)C[C@H](O[C@H]3[C@@H](O)C[C@H](O[C@H]4CC[C@@]5(C)[C@H](CC[C@@H]6[C@@H]5CC[C@]5(C)[C@@H](C7=CC(=O)OC7)CC[C@]65O)C4)O[C@@H]3C)O[C@@H]2C)C[C@H](O)[C@@H]1O [DIGITOXIN]
IC50 [1]: 120 nM

B1: Solute carrier organic anion transporter family member 4C1 (Homo sapiens) (protein)
chain: MKSAKGIENLAFVPSSPDILRRLSASPSQIEVSALSSDPQRENSQPQELQKPQEPQKSPEPSLPSAPPNVSEEKLRSLSLSEFEEGSYGWRNFHPQCLQRCNTPGGFLLHYCLLAVTQGIVVNGLVNISISTVEKRYEMKSSLTGLISSSYDISFCLLSLFVSFFGERGHKPRWLAFAAFMIGLGALVFSLPQFFSGEYKLGSLFEDTCVTTRNSTSCTSSTSSLSNYLYVFILGQLLLGAGGTPLYTLGTAFLDDSVPTHKSSLYIGTGYAMSILGPAIGYVLGGQLLTIYIDVAMGESTDVTEDDPRWLGAWWIGFLLSWIFAWSLIIPFSCFPKHLPGTAEIQAGKTSQAHQSNSNADVKFGKSIKDFPAALKNLMKNAVFMCLVLSTSSEALITTGFATFLPKFIENQFGLTSSFAATLGGAVLIPGAALGQILGGFLVSKFRMTCKNTMKFALFTSGVALTLSFVFMYAKCENEPFAGVSESYNGTGELGNLIAPCNANCNCSRSYYYPVCGDGVQYFSPCFAGCSNPVAHRKPKVYYNCSCIERKTEITSTAETFGFEAKAGKCETHCAKLPIFLCIFFIVIIFTFMAGTPITVSILRCVNHRQRSLALGIQFMVLRLLGTIPGPIIFGFTIDSTCILWDINDCGIKGACWIYDNIKMAHMLVAISVTCKVITMFFNGFAIFLYKPPPSATDVSFHKENAVVTNVLAEQDLNKIVKEG
Km [3]: 7.8 µM | Km [4]: 5.9 µM

— ChEMBL document CHEMBL2074326 (Proc Natl Acad Sci U S A, 2004)
